Data: patent US4316957A, “Process for the production of 7-deazaadenosine and 7-deazainosine” (Abbott Laboratories, priority 1977, dated 1982)
≈ marks a conversion by molar mass, not a printed value. Like-named read-outs stand apart in the source and are kept apart here.

How the values were obtained:
[1] = system: Bacillus subtilis KY 4273; test: Antibacterial spectrum by agar dilution method (pH 7.0); format: cell-based
Text: (§1) The antibacterial spectra of 7-deazaadenosine and 7-deazainosine against various microorganisms by agar dilution method (pH 7.0) are shown in the following Table 3.

[2] = system: Comamonas terrigena KY 4174; test: as above; format: cell-based
Text: as §1

Escherichia coli KY 4271 = test: as above; format: cell-based
Text: as §1

[3] = system: Mycobacterium phlei KY 3486; test: as above; format: cell-based; conditions: Mycolicibacterium phlei
Text: as §1

[4] = system: Mycobacterium smegmatis KY 3848; test: as above; format: cell-based; conditions: Mycolicibacterium smegmatis
Text: as §1

[5] = system: Pseudomonas alcaligenes KY 4656; test: as above; format: cell-based; conditions: Aquipseudomonas alcaligenes
Text: as §1

Solubility = format: physicochemical

Compound | MIC ([1]; KY4273, Bacillus subtilis KY 4273, agar dilution, pH 7.0, read-out: MIC) | MIC ([2]; KY4174, Comamonas terrigena KY 4174, agar dilution, pH 7.0, read-out: MIC) | MIC (Escherichia coli KY 4271; KY4271, Escherichia coli KY 4271, agar dilution, pH 7.0, read-out: MIC) | MIC ([3]; KY3486, Mycobacterium phlei KY 3486, agar dilution, pH 7.0, read-out: MIC) | MIC ([4]; KY3848, Mycobacterium smegmatis KY 3848, agar dilution, pH 7.0, read-out: MIC) | MIC ([5]; KY4656, Pseudomonas alcaligenes KY 4656, agar dilution, pH 7.0, read-out: MIC) | Solubility (Solubility; in hexane, benzene and ether) | Solubility (Solubility; in methanol) | Solubility (Solubility; in water) | MIC ([1]; Bacillus subtilis, KY4273, pH 7) | MIC ([2]; Comamonas terrigena, KY4174, pH 7) | MIC (Escherichia coli KY 4271; Escherichia coli, KY4271, pH 7) | MIC ([3]; KY3486, pH 7) | MIC ([4]; KY3848, pH 7) | MIC ([5]; KY4656, pH 7)
O=c1[nH]cnc2c1ccn2[C@@H]1O[C@H](CO)[C@@H](O)[C@H]1O [7-Deazainosine, 7-deazainosine] | > 100 µg/mL | 40 µg/mL (≈ 150 µM) | > 100 µg/mL | < 0.045 µg/mL | > 100 µg/mL | 40 µg/mL (≈ 150 µM) | insoluble | poorly soluble | Soluble | – | – | – | – | – | –
Nc1ncnc2c1ccn2[C@@H]1O[C@H](CO)[C@@H](O)[C@H]1O [7-Deazaadenosine, 7-deazaadenosine] | – | – | – | – | – | – | insoluble | poorly soluble | Soluble | 100 µg/mL (≈ 376 µM) | 10 µg/mL (≈ 37.6 µM) | > 100 µg/mL | < 0.045 µg/mL | 20 µg/mL (≈ 75.1 µM) | 10 µg/mL (≈ 37.6 µM)
